# Results: patent US9650395B2, “Antibacterial compounds and methods for use” (PTC Therapeutics, Inc., priority 2011, dated 2017)
# Read-outs that look alike come from different tables or passages of the source.
# How the values were obtained:
# [1] = test system: super sensitive Gram-negative Escherichia coli (E. coli) BAS849; test: Antibacterial activity, microbroth dilution MIC, E. coli BAS849; format: cell-based; details: Escherichia coli, read-out: MIC, BAS849
# [2] = test system: control Gram-negative E. coli 25922 strain; test: Antibacterial activity, microbroth dilution MIC, E. coli 25922; format: cell-based, Escherichia coli; details: Escherichia coli; E. coli 25922, microbroth dilution; read-out: MIC, 25922
# [3] = test system: Gram-positive Staphylococcus aureus (S. aureus) 29213; test: Antibacterial activity, microbroth dilution MIC, S. aureus 29213; format: cell-based; details: Staphylococcus aureus; S. aureus 29213, microbroth dilution; read-out: MIC, 29213
# [4] = test system: quinolone resistant E. coli LZ3111; test: Antibacterial activity, MIC, quinolone resistant E. coli LZ3111; format: cell-based, Escherichia coli; details: Escherichia coli, read-out: MIC, LZ3111
# Source text: (§1) The antibacterial activity from a microbroth dilution method may be presented as the minimum inhibitory concentration (MIC in […]). The MIC value is the lowest concentration of a drug which prevents macroscopically visible bacterial growth under test conditions.
# Mutations in these regions are known to confer a high level resistance to the quinolone class of antibiotics.
# [5] = test system: E. coli ELZ4000 (MDR clinical isolate); test: Antibacterial activity, MIC, MDR E. coli ELZ4000; format: cell-based, Escherichia coli; details: Escherichia coli; E. coli ELZ4000, MDR clinical isolate; read-out: MIC ELZ4000
# [6] = test system: E. coli ELZ4251 (MDR clinical isolate); test: Antibacterial activity, MIC, MDR E. coli ELZ4251; format: cell-based, Escherichia coli; details: Escherichia coli, E. coli ELZ4251, MDR clinical isolate; read-out: MIC ELZ4251
# [7] = test system: Haemophilus influenzae (H. influenzae) 49247; test: Antibacterial activity, MIC, H. influenzae 49247; format: cell-based; details: Haemophilus influenzae; H. influenzae 49247; read-out: MIC 49247
# Source text: as §1
# Antibacterial activity of test compounds against the Gram-negative bacteria Haemophilus influenzae (H. influenzae) 49247, Moraxella catarrhalis (M. catarrhalis) 25238 and Neisseria meningitidis (N. meningitidis) 13090 is shown in Table 6.
# [8] = test system: Moraxella catarrhalis (M. catarrhalis) 25238; test: Antibacterial activity, MIC, M. catarrhalis 25238; format: cell-based; details: Moraxella catarrhalis, M. catarrhalis 25238; read-out: MIC 25238
# [9] = test system: Neisseria meningitidis (N. meningitidis) 13090; test: Antibacterial activity, MIC, N. meningitidis 13090; format: cell-based; details: Neisseria meningitidis; N. meningitidis 13090; read-out: MIC 13090
# [10] = E. coli BAS849, microbroth dilution
SMILES,"MIC [1, 10]",MIC [2],MIC [3],MIC [4],MIC [5],MIC [6],MIC [7],MIC [8],MIC [9],MIC [1]
"CCc1c(-c2ccc(N(C)CCO)cc2)[nH]c(=O)c(C(=O)O)c1O [Cpd 18, 5-ethyl-4-hydroxy-6-{4-[(2-hydroxyethyl)(methyl)amino]phenyl}-2-oxo-1,2-dihydropyridine-3-carboxylic acid]",< 1 µg/mL,3.5 to 12.5 µg/mL,3.5 to 12.5 µg/mL,12.5 to 150 µg/mL,12.5 to 150 µg/mL,12.5 to 150 µg/mL,< 1 µg/mL,< 1 µg/mL,,
"CN(C)c1ccc(-c2[nH]c(=O)c(C(=O)O)cc2CN)cc1.Cl [Cpd 22, 5-(aminomethyl)-6-[4-(dimethylamino)phenyl]-2-oxo-1,2-dihydropyridine-3-carboxylic acid hydrochloride]",12.5 to 150 µg/mL,12.5 to 150 µg/mL,12.5 to 150 µg/mL,,,,12.5 to 150 µg/mL,12.5 to 150 µg/mL,3.5 to 12.5 µg/mL,
"CCc1cc(C(=O)O)c(=O)[nH]c1-c1ccc(N2CCCC2)cc1F [Cpd 38, 5-ethyl-6-[2-fluoro-4-(pyrrolidin-1-yl)phenyl]-2-oxo-1,2-dihydropyridine-3-carboxylic acid]",< 1 µg/mL,1 to 3.5 µg/mL,3.5 to 12.5 µg/mL,12.5 to 150 µg/mL,12.5 to 150 µg/mL,12.5 to 150 µg/mL,,< 1 µg/mL,,
"CCc1cc(C(=O)O)c(=O)[nH]c1-c1ccc(N(C)C)cc1F [Cpd 53, 6-[4-(dimethylamino)-2-fluorophenyl]-5-ethyl-2-oxo-1,2-dihydropyridine-3-carboxylic acid]",< 1 µg/mL,1 to 3.5 µg/mL,12.5 to 150 µg/mL,,,,,< 1 µg/mL,,
"CCc1c(-c2ccc(NCCCI)cc2)[nH]c(=O)c(C(=O)O)c1O [Cpd 82, 5-ethyl-4-hydroxy-6-{4-[(3-iodopropyl)amino]phenyl}-2-oxo-1,2-dihydropyridine-3-carboxylic acid]",3.5 to 12.5 µg/mL,12.5 to 150 µg/mL,1 to 3.5 µg/mL,,,,< 1 µg/mL,< 1 µg/mL,< 1 µg/mL,
"Cc1cc(C(=O)O)c(=O)[nH]c1-c1ccc(N2CCOCC2)c(F)c1 [Cpd 89, 6-[3-fluoro-4-(morpholin-4-yl)phenyl]-5-methyl-2-oxo-1,2-dihydropyridine-3-carboxylic acid]",12.5 to 150 µg/mL,12.5 to 150 µg/mL,12.5 to 150 µg/mL,,,,< 1 µg/mL,12.5 to 150 µg/mL,12.5 to 150 µg/mL,
"CCc1cc(C(=O)O)c(=O)[nH]c1-c1ccc(N(C)CC)cc1 [Cpd 160, 5-ethyl-6-{4-[ethyl(methyl)amino]phenyl}-2-oxo-1,2-dihydropyridine-3-carboxylic acid]",< 1 µg/mL,1 to 3.5 µg/mL,12.5 to 150 µg/mL,12.5 to 150 µg/mL,12.5 to 150 µg/mL,12.5 to 150 µg/mL,< 1 µg/mL,< 1 µg/mL,,
"CCc1cc(C(=O)O)c(=O)[nH]c1-c1ccc(N2CCC(CNCc3ccccc3)C2)cc1.Cl (centres unmarked) [Cpd 182, 6-(4-{3-[(benzylamino)methyl]pyrrolidin-1-yl}phenyl)-5-ethyl-2-oxo-1,2-dihydropyridine-3-carboxylic acid hydrochloride]",< 1 µg/mL,< 1 µg/mL,12.5 to 150 µg/mL,12.5 to 150 µg/mL,12.5 to 150 µg/mL,12.5 to 150 µg/mL,,< 1 µg/mL,< 1 µg/mL,
"CCc1cc(C(=O)O)c(=O)[nH]c1-c1ccc(N2CCC(CN(C)C)C2)cc1.O=C(O)C(F)(F)F (centres unmarked) [Cpd 185, 6-(4-{3-[(dimethylamino)methyl]pyrrolidin-1-yl}phenyl)-5-ethyl-2-oxo-1,2-dihydropyridine-3-carboxylic acid trifluoroacetate]",,3.5 to 12.5 µg/mL,12.5 to 150 µg/mL,12.5 to 150 µg/mL,12.5 to 150 µg/mL,12.5 to 150 µg/mL,,1 to 3.5 µg/mL,< 1 µg/mL,< 1 µg/mL
"CCc1cc(C(=O)O)c(=O)[nH]c1-c1ccc(N2C[C@H]3CCN(C)[C@H]3C2)cc1.O=C(O)C(F)(F)F [Cpd 187, 5-ethyl-6-{4-[(3aR,6aR)-1-methylhexahydropyrrolo[3,4-b]pyrrol-5(1H)-yl]phenyl}-2-oxo-1,2-dihydropyridine-3-carboxylic acid trifluoroacetate]",,3.5 to 12.5 µg/mL,12.5 to 150 µg/mL,12.5 to 150 µg/mL,12.5 to 150 µg/mL,12.5 to 150 µg/mL,,1 to 3.5 µg/mL,< 1 µg/mL,< 1 µg/mL
"CCc1c(-c2ccc(N3C[C@H]4CN(C)C[C@H]4C3)cc2)[nH]c(=O)c(C(=O)O)c1O.Cl [Cpd 273, 5-ethyl-4-hydroxy-6-{4-[(3aR,6aS)-5-methylhexahydropyrrolo[3,4-c]pyrrol-2(1H)-yl]phenyl}-2-oxo-1,2-dihydropyridine-3-carboxylic acid hydrochloride]",< 1 µg/mL,1 to 3.5 µg/mL,12.5 to 150 µg/mL,12.5 to 150 µg/mL,12.5 to 150 µg/mL,12.5 to 150 µg/mL,,1 to 3.5 µg/mL,1 to 3.5 µg/mL,
